Assay results taken from US20040072902A1, “Methods for inducing apoptosis and inhibiting proliferation in cancer cells” (priority 2003, published 2004).

Key:
[1] = system: AsPC-1 human pancreatic cancer cells; test: Thymidine incorporation proliferation assay in AsPC-1 cells; format: cell-based
Text: This can be seen in FIG. 1A (results using myristoleic acid obtained from Sigma Chemicals (St. Louis, Mo.)) and FIG. 1B (results using myristoleic acid obtained from Matreya, Inc. (State College, Pa.)).
(§1) The results are presented in FIG. 2A (cetyl myristoleic acid) and FIG. 2B (palmitoleic acid).
(§2) The thymidine incorporation experiments described in Example 1 were repeated in triplicate on each of two malignant human pancreatic cancer cell lines, AsPC-1 and PANC-1. The results are set forth in FIG. 3A (AsPC-1) and FIG. 3B (PANC-1).

[2] = system: AsPC-1 human pancreatic cancer cells; test: Cell morphology during inhibition of proliferation; format: cell-based; conditions: membrane blebbing, cellular rounding, detachment, data not shown
Text: as §1

[3] = system: AsPC-1 xenografts; test: Growth of AsPC-1 xenografts in athymic mice; format: in vivo; conditions: 250 mg/kg/day intraperitoneal
Protocol: (§3) The effects of daily intraperitoneal injection of myristoleic acid (250 mg/kg/day) on the growth of AsPC-1 and HPAC xenografts in athymic mice were investigated. Animals were injected daily with myristoleic acid (250 mg/kg/day) (labeled “myristoleic acid” in FIG. 6) or with a control solution (labeled “control” in FIG. 6) once visible tumors were established (about five days after implantation). […] The experiment was repeated twice with AsPC-1 cells and also with HPAC cells. The results set forth in FIG. 6 are representative of these experiments.
(§4) Tumor volumes of the above-described athymic mice were measured as a function of time, and the results are presented in FIG. 7A (AsPC-1 cancer cells) and FIG. 7B (HPAC cancer cells).
(§5) At the end of the experiment, the AsPC-1 and HPAC xenografts were harvested from the athymic mice and the weights of the tumors were measured.

[4] = system: PANC-1 human pancreatic cancer cells; test: Thymidine incorporation proliferation assay in PANC-1 cells; format: cell-based
Text: as §2

[5] = system: AsPC-1 xenografts; test: In situ TUNEL assay of harvested xenografts; format: in vivo, athymic mice; conditions: AsPC-1 xenografts harvested at end of experiment; versus vehicle (minimal staining)
Protocol: To determine whether the effects observed in the athymic mouse experiments described in Example 7 might be due to apoptosis, in situ TUNEL assays were carried out on the AsPC-1 xenografts that were harvested from the athymic mice at the end of the experiment. Images of xenograft sections from mice treated with the control solution (vehicle only) (FIGS. 9A and 9B) show minimal staining.

[6] = system: AsPC-1 cells; test: TUNEL assay (DNA fragmentation); format: cell-based, human; conditions: 10 μg/ml; 24 hours; versus control
Protocol: The effect of myristoleic acid (10 μg/ml) (“MA”) on terminal deoxynucleotidyl transferase-mediated dUTP nick end labeling (“TUNEL”) assay at 24 hours in AsPC-1 cells was investigated. The results are presented in FIGS. 5A (control) and 5B (10 μg/ml myristoleic acid). […] The results set forth in FIGS. 5A and 5B are representative of three separate experiments.

[7] = system: HPAC xenografts; test: Growth of HPAC xenografts in athymic mice; format: in vivo; conditions: 250 mg/kg/day intraperitoneal
Protocol: as §3, §4, §5

[8] = system: AsPC-1 cells; test: Annexin V binding (early apoptosis); format: cell-based, human; conditions: 10 μg/ml; 3 or 5 hours after beginning treatment
Protocol: The effect of myristoleic acid (10 μg/ml) (“MA”) on annexin V binding in AsPC-1 cells at 3 or 5 hours after beginning treatment is shown in FIG. 4. […] This specific test utilizes the translocation of phophatidyl serine from the inner to outer plasma membrane, which is a feature of early apoptosis. The results set forth in FIG. 4 are representative of three separate experiments.

SMILES	inhibition of proliferation as measured by thymidine incorporation ([1]; Example 2)	morphological changes accompanying inhibition of proliferation [2]	tumor size ([3]; daily, AsPC-1 xenografts, throughout the experimental period)	tumor weight ([3]; AsPC-1, at the end of the experiment)	tumor volume ([3]; AsPC-1, throughout the experimental period)	anti-proliferative activity, concentration range of effects [4]	effects on pancreatic cancer cell proliferation (thymidine incorporation) ([4]; repeated in triplicate)	anti-proliferative activity, concentration range of effects [1]	inhibition of proliferation as measured by thymidine incorporation ([1]; 24 hours, myristoleic acid from two commercial sources (Sigma, Matreya))	effects on pancreatic cancer cell proliferation (thymidine incorporation) ([1]; repeated in triplicate)	apoptotic cells in xenograft sections (in situ TUNEL) [5]	number of apoptotic cells by TUNEL assay [6]	tumor size ([7]; daily, HPAC xenografts, throughout the experimental period)	tumor weight ([7]; HPAC, at the end of the experiment)	tumor volume ([7]; HPAC, throughout the experimental period)	annexin V binding [8]
CCCC/C=C\CCCCCCCC(=O)OCCCCCCCCCCCCCCCC [cetyl myristoleic acid]	concentration-dependent inhibition of proliferation	morphological changes associated with apoptosis	–	–	–	–	–	–	–	–	–	–	–	–	–	–
CCCCCC/C=C\CCCCCCCC(=O)O [palmitoleic acid]	concentration-dependent inhibition of proliferation	morphological changes associated with apoptosis	–	–	–	–	–	–	–	–	–	–	–	–	–	–
CCCC/C=C\CCCCCCCC(=O)O [myristoleic acid]	–	morphological changes associated with apoptosis	marked reduction in tumor size	marked reduction	marked reduction	low micromolar range	concentration-dependent effects	low micromolar range	concentration-dependent inhibition of proliferation	concentration-dependent effects	many apoptotic cells	marked increase in the number of apoptotic cells	marked reduction in tumor size	marked reduction	marked reduction	Marked membrane fluorescence
